This is an account of results in patent publication US20210063374A1, “ABNORMAL CARDIAC RHYTHM MYOCARDIAL MODEL AND METHOD FOR PRODUCING SAME, AGENT FOR FORMING ABNORMAL CARDIAC RHYTHM MYOCARDIAL MODEL, AND METHOD FOR EVALUATING DRUG EFFICACY OF HEART DISEASE THERAPEUTIC” (TOPPAN PRINTING CO., LTD., priority 2017, published 2021).

The structures appear in SMILES notation. “Also recorded” adds a separate entry of the source.

For this test, the system named is myocardial models composed of three-dimensional tissues (iPS-CM 75%/NHCF 25%). As to the kind of experiment: Evaluation of drug response to isoproterenol (change rate of the number of beats of myocardial model). The note with it: 100 nM isoproterenol, 30, 60, 80 min incubation, FIG. 12. The format is cell-based, human. The procedure:
5 mL of 10× phosphate buffered saline (PBS) was added to 50 mg of a pig skin-derived type I collagen (provided by NH Foods Ltd.), and was subjected to homogenization by using a homogenizer for 6 min. Subsequently, centrifugation was performed at 10000 rpm for 3 min to remove the supernatant. 5 mL of serum-free DMEM was added thereto, followed by washing by pipetting for 1 min. After the washing, centrifugation was performed at 10000 rpm for 3 min to remove the supernatant. 5 mL of serum-containing DMEM was added thereto to prepare a culture medium (CMF concentration: 9.8 mg/mL) having fragmented collagens (CMF) dispersed therein. Dispersions were weighed from the culture medium having CMF dispersed therein such that the amounts of CMFs were 0, 1, 2, and 3 mg, were mixed with 5×10^5 cells of iPS-CM 75%/NHCF 25%, and were seeded in a 96-well round-bottomed non-adherent plate (the amount of the culture medium: 300 μL). Subsequently, centrifugation was performed at 1100 g for 5 min to precipitate the CMFs and the cells. After the centrifugation, culturing was performed in a culture-ware at 37° C. The culture medium was replaced every 2 days by removing the old culture medium and adding 300 μL of new culture medium.
A three-dimensional tissue was constructed in the same manner as above. […] The content of the collagen in the three-dimensional tissue was measured using the kit above according to the standard protocol of the kit.
The cardiac rhythms of the tissues after culturing for 5 to 6 days were taken using a SONY Motion analyzer to measure the number of beats. […] From the results of measurement, the change rate of the number of beats (change rate of beating) by adding isoproterenol was calculated from the following equation. […]
The change rate of the number of beats caused by addition of isoproterenol is determined by the equation above, and this value is corrected by the equation below, i.e., by dividing this value by the change rate of the number of beats when the drug is not added (=a change in the number of beats caused by replacement of the culture medium).

As for `CC(C)NCC(O)c1ccc(O)c(O)c1` (stereo not drawn) [isoproterenol], the “drug response (change rate of the number of beats)” value is, setting by setting: (myocardial model with 0 mg CMFs) “poor”; (myocardial model with 1 mg CMFs) “exhibited; also recorded: more favorable drug response”; (myocardial model with 3 mg CMFs) “exhibited”.
